We go through eleven compounds from ChEMBL document CHEMBL1201862, “PubChem BioAssay data set” (2004).

The structures appear in SMILES notation.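 The compound was tested at five concentrations on cells cultured in 96-well plates, with a 48-hour exposure period. Here, GI50 denotes the concentration required for 50% inhibition of growth.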 Calls of active or inactive are those of the source. Rule as the data show it: active = GI50 up to about 1.1 µM and inactive = higher.

Test systems include RPMI-8226; SK-OV-3; SNB-19; ACHN; NCI-H226; NCI/ADR-RES; UACC-62; BT-549; SK-MEL-28; EKVX; IGROV-1; SK-MEL-2; OVCAR-3; UACC-257; OVCAR-8; HCT-15; HCT-116; K562; M14; NCI-H460.
Test in all cases: NCI-60 cell line screen, 48 h

For the compound `COc1ccc(OC)c(CNc2ccc(C(=O)O)cc2)c1`, the GI50 in the experiment with RPMI-8226, in the experiment with SK-OV-3, with SNB-19, in the experiment with ACHN, in the experiment on NCI-H226 and in the experiment on NCI/ADR-RES was > 100 µM (inactive) each time. Also, the GI50 with UACC-62, in the experiment with BT-549, in the experiment on SK-MEL-28, in the experiment on EKVX, with IGROV-1 and in the experiment with SK-MEL-2 was > 100 µM (inactive) in each case. Besides, the GI50 in the experiment on OVCAR-3 is > 100 µM (inactive); in the experiment on UACC-257, > 100 µM (inactive); in the experiment on OVCAR-8 it was > 100 µM (inactive); in the experiment on HCT-15, greater than 100 µM; in the experiment with HCT-116 it was > 100 µM (inactive); with K562, > 100 µM (inactive). Moreover, the GI50 with M14 is > 100 µM (inactive).
On to `COC(=O)c1c(O)ccc2c1c1c(n2-c2ccc(OC)cc2)C(=O)c2ccccc2C1=O`, for which the GI50 in the experiment with RPMI-8226 was 9.73 µM (inactive); with SK-OV-3 it was 19.3 µM (inactive); in the experiment on NCI-H460, 5.04 µM (inactive); with SNB-19, 20.6 µM (inactive); with ACHN it was 12.8 µM (inactive); in the experiment with NCI-H226, 25.5 µM (inactive). For the same compound, the GI50 in the experiment on NCI/ADR-RES is 14.7 µM (inactive); in the experiment on BT-549 it was 22 µM (inactive); in the experiment with SK-MEL-28 it was 29.9 µM (inactive); in the experiment with EKVX, 16.6 µM (inactive); with IGROV-1 it was 16.6 µM (inactive); with SK-MEL-2 it was 26.1 µM (inactive). Further, the GI50 with OVCAR-3 is 22.9 µM (inactive); in the experiment with UACC-257, 64.9 µM (inactive); with OVCAR-8, 12.6 µM (inactive); in the experiment on HCT-15, 18.3 µM; with HCT-116, 16.9 µM (inactive); in the experiment with K562 it was 55.2 µM (inactive). Moreover, the GI50 in the experiment with M14 was 63.2 µM (inactive).
In the case of `COc1cc(/C=C/C(=O)N[C@@H]2C(=O)N3[C@@H]2SC(C)(C)[C@@H]3C(=O)O)cc(OC)c1OC`, the GI50 with RPMI-8226, in the experiment on SK-OV-3, with NCI-H460, in the experiment with SNB-19, in the experiment with ACHN and in the experiment on NCI-H226 was > 100 µM (inactive) each time. Moreover, the GI50 with NCI/ADR-RES, in the experiment with UACC-62, with BT-549, in the experiment with SK-MEL-28, in the experiment on EKVX and with SK-MEL-2 was > 100 µM (inactive) each time. The GI50 was > 100 µM (inactive) in the experiment on OVCAR-3; > 100 µM (inactive) with UACC-257; > 100 µM (inactive) in the experiment on OVCAR-8; greater than 100 µM in the experiment on HCT-15; > 100 µM (inactive) with HCT-116; > 100 µM (inactive) in the experiment on K562. Further, the GI50 in the experiment with M14 was > 100 µM (inactive).
For `Cc1ccc(NNc2cc(=O)[nH]c(=O)[nH]2)cc1Cl`, the GI50 with RPMI-8226 was 10.9 µM (inactive); in the experiment on SK-OV-3 it was 41.4 µM (inactive); with NCI-H460, 33.2 µM (inactive); in the experiment on SNB-19, 24.4 µM (inactive); in the experiment on ACHN, 9.42 µM (inactive); in the experiment with NCI-H226, 56.9 µM (inactive). In addition, the GI50 in the experiment with NCI/ADR-RES was 95.3 µM (inactive); in the experiment with UACC-62, 18.3 µM (inactive); in the experiment on BT-549, 41.1 µM (inactive); with SK-MEL-28, 17.2 µM (inactive); with IGROV-1, 13.8 µM (inactive); in the experiment with SK-MEL-2, 16.5 µM (inactive). In addition, the GI50 was 14.8 µM (inactive) in the experiment on OVCAR-3; 17.5 µM (inactive) in the experiment with UACC-257; 10.6 µM with HCT-15; 14.9 µM (inactive) with HCT-116; 2.99 µM (inactive) in the experiment on K562; 13.7 µM (inactive) in the experiment on M14.
Turning to `CC1CC/C(=C\c2ccc(Cl)cc2)c2nc(N)c(C#N)c(-c3ccc(Cl)cc3)c21` (stereo unspecified), the GI50 with RPMI-8226 was 19.7 µM (inactive); with SK-OV-3 it was > 100 µM (inactive); in the experiment with SNB-19, 29.9 µM (inactive); in the experiment with ACHN, 42.2 µM (inactive); with NCI-H226 it was 58.6 µM (inactive); in the experiment on NCI/ADR-RES it was 55.1 µM (inactive). Moreover, the GI50 was 20.5 µM (inactive) in the experiment with UACC-62; 75.5 µM (inactive) with BT-549; 49.4 µM (inactive) with SK-MEL-28; 80.7 µM (inactive) in the experiment with EKVX; 62.8 µM (inactive) in the experiment on IGROV-1; 66.1 µM (inactive) with SK-MEL-2. Besides, the GI50 with OVCAR-3 is 47.1 µM (inactive); in the experiment with UACC-257, 32.9 µM (inactive); in the experiment with OVCAR-8, 63.2 µM (inactive); with HCT-15, 8.47 µM; in the experiment on HCT-116, 84.9 µM (inactive); in the experiment on K562, 31.5 µM (inactive). Moreover, the GI50 with M14 was 57.8 µM (inactive).
As to `COC(=O)C12OC(C)(C(CC(=O)OC(C)(C)C)C1=O)C1C(=O)N(c3ccccc3)C(=O)C12` (stereo unspecified), the GI50 with RPMI-8226, with SK-OV-3, with NCI-H460, in the experiment with SNB-19, with ACHN and with NCI-H226 was > 100 µM (inactive) in each case. Further, the GI50 in the experiment with NCI/ADR-RES, in the experiment with UACC-62, in the experiment with BT-549, in the experiment on SK-MEL-28, in the experiment on IGROV-1 and in the experiment on SK-MEL-2 was > 100 µM (inactive) in each case. Also, the GI50 was > 100 µM (inactive) in the experiment on OVCAR-3; > 100 µM (inactive) with UACC-257; > 100 µM (inactive) with OVCAR-8; greater than 100 µM in the experiment on HCT-15; > 100 µM (inactive) in the experiment on HCT-116; > 100 µM (inactive) in the experiment with K562. For the same compound, the GI50 in the experiment with M14 is > 100 µM (inactive).
On to `C/C=C/[C@@H]1[C@H]2C(=O)[C@]3(Cl)[C@@H](/C=C/C)[C@@H]3C(=O)[C@@]12Cl`, for which the GI50 in the experiment on SK-OV-3, in the experiment with NCI-H460, in the experiment on SNB-19, in the experiment with ACHN, in the experiment with NCI-H226 and in the experiment with NCI/ADR-RES was > 100 µM (inactive) throughout. Also, the GI50 in the experiment with UACC-62, in the experiment on BT-549, in the experiment with SK-MEL-28, in the experiment with EKVX, with IGROV-1 and in the experiment on SK-MEL-2 was > 100 µM (inactive) each time. Moreover, the GI50 is > 100 µM (inactive) in the experiment on OVCAR-3; > 100 µM (inactive) in the experiment on UACC-257; > 100 µM (inactive) with OVCAR-8; greater than 100 µM in the experiment on HCT-15; > 100 µM (inactive) in the experiment with HCT-116; > 100 µM (inactive) with K562. Besides, the GI50 in the experiment on M14 is > 100 µM (inactive).
In the case of `COC(=O)NC1(NC(=O)OC)NC(=O)c2cc(OC)c(OC)c(OC)c2N1`, the GI50 with SK-OV-3 is 2.62 µM (inactive); in the experiment with NCI-H460 it was 17.2 µM (inactive); with SNB-19, 44.9 µM (inactive); with ACHN, 86.5 µM (inactive); with NCI-H226, 31.1 µM (inactive); in the experiment with NCI/ADR-RES it was 15.1 µM (inactive). Besides, the GI50 in the experiment on UACC-62 is 30.1 µM (inactive); with BT-549 it was 22.4 µM (inactive); with SK-MEL-28 it was 84.3 µM (inactive); with EKVX it was > 100 µM (inactive); in the experiment on IGROV-1, 53.1 µM (inactive); in the experiment on SK-MEL-2, 0.0132 µM (active). Also, the GI50 in the experiment with OVCAR-3 was 54.1 µM (inactive); in the experiment on UACC-257 it was > 100 µM (inactive); in the experiment with OVCAR-8 it was 64.4 µM (inactive); in the experiment with HCT-15 it was 8.49 µM; in the experiment with HCT-116 it was 26.1 µM (inactive); with K562 it was 12.3 µM (inactive). For the same compound, the GI50 in the experiment with M14 was 21.8 µM (inactive).
Turning to `NC(Cc1cc(I)c(Oc2ccc(O)c(I)c2)c(I)c1)C(=O)O` (stereo unspecified) [RATHYRONINE], the GI50 is 29.9 µM (inactive) in the experiment with RPMI-8226; > 100 µM (inactive) in the experiment with SK-OV-3; 80.9 µM (inactive) with SNB-19; > 100 µM (inactive) with ACHN; > 100 µM (inactive) with NCI-H226; > 100 µM (inactive) in the experiment with NCI/ADR-RES. The GI50 was 64.4 µM (inactive) in the experiment with UACC-62; 61.1 µM (inactive) in the experiment on BT-549; 38.9 µM (inactive) in the experiment on SK-MEL-28; > 100 µM (inactive) in the experiment with EKVX; 73.1 µM (inactive) in the experiment on IGROV-1; 19.9 µM (inactive) in the experiment with SK-MEL-2. The GI50 in the experiment with OVCAR-3 is > 100 µM (inactive); with UACC-257, > 100 µM (inactive); with OVCAR-8, > 100 µM (inactive); in the experiment with HCT-15, greater than 100 µM; in the experiment with HCT-116 it was > 100 µM (inactive); in the experiment with M14 it was > 100 µM (inactive).
In the case of `CCC1=C(C)C(=O)N/C1=C\c1[nH]c(C)c([C@H](C)CCN)c1C`, the GI50 was 25.6 µM (inactive) with RPMI-8226; 16.9 µM (inactive) with SK-OV-3; 20.3 µM (inactive) with NCI-H460; 18.6 µM (inactive) with ACHN; 17.1 µM (inactive) in the experiment on NCI-H226; 20 µM (inactive) with NCI/ADR-RES. In addition, the GI50 was 17.3 µM (inactive) in the experiment with UACC-62; 16.3 µM (inactive) in the experiment with BT-549; 17.3 µM (inactive) with SK-MEL-28; 14.4 µM (inactive) in the experiment on EKVX; 17 µM (inactive) in the experiment with IGROV-1; 18.7 µM (inactive) with SK-MEL-2. The GI50 with OVCAR-3 was 16 µM (inactive); in the experiment on OVCAR-8, 15.3 µM (inactive); in the experiment with HCT-15 it was 14.8 µM; with HCT-116 it was 14.5 µM (inactive); in the experiment on K562, 46.6 µM (inactive); in the experiment with M14, 15.8 µM (inactive).
As to `Cc1ccc(/N=C/C=C(\Nc2ccc(C)cc2)c2ccc3ccccc3c2)cc1`, the GI50 is 0.536 µM (active) in the experiment with RPMI-8226; 0.731 µM (active) with SK-OV-3; 0.489 µM (active) in the experiment with NCI-H460; 1.68 µM (inactive) in the experiment on SNB-19; 0.671 µM (active) in the experiment with ACHN; 1.4 µM (inactive) in the experiment on NCI-H226. In addition, the GI50 with NCI/ADR-RES is 0.445 µM (active); in the experiment on UACC-62, 0.331 µM (active); in the experiment on BT-549, 2.33 µM (inactive); with SK-MEL-28 it was 0.488 µM (active); in the experiment with IGROV-1 it was 0.541 µM (active); with SK-MEL-2 it was 0.938 µM (active). Also, the GI50 in the experiment on OVCAR-3 was 0.364 µM (active); with UACC-257, 0.501 µM (active); with OVCAR-8, > 100 µM (inactive); with HCT-15 it was 0.45 µM; in the experiment on HCT-116 it was 0.434 µM (active); with K562 it was 0.414 µM (active). For the same compound, the GI50 in the experiment on M14 is 1.13 µM (inactive).
